In US20250275993A1, “GLYCOSYLATION INHIBITORS AS THERAPEUTICS FOR STROKE” (The Regents of the University of California, priority 2022, published 2025):

Assays:
[1] = mouse, in vivo, po
Protocol: Following oral administration, there was a relatively rapid decline in ManN plasma levels. Plasma free ManN levels reached a peak level of −100 nmol/ml plasma at 1 hr. […] 2 hours after oral feeding of 20% ManN, muscle samples were taken from the ischemic legs. A significant amount of ManN reached the ischemic legs, with 0.17+1−0.18 nmol/mg protein of free ManN and 0.91+1−0.24 nmol/mg protein of ManN-6p.
To test ManN stability in wound fluid collected from mice with skin infection as described below, 1.5 μl of 5% ManN solution was added to each 200 μl wound fluid which was first diluted 1:1 (v/v) with PBS. At each time point, samples were taken from 37° C. incubator and stored at −80° C. Plasma proteins were precipitated by adding ice cold acetonitrile to plasma: acetonitrile 1:3 (v/v) ratio. Samples were kept over ice for 1 hr and then centrifuged at 12000 g for 10 min at 7° C. to form a pellet. Supernatants were transferred to other tubed, dried down on a Speed Vac and then reconstituted in UltraPure distilled water and filtered through pre-washed Nanosep 3K Omega filters (Pall Corporation). The filtrate was dried down on Speed Vac. The dry samples were dissolved in 100 μl of water and 2 μl plasma or wound fluid sample was subjected to HPLC analysis. Neutral and amino sugars were separated on a Dionex CarboPac PAI column 4 mm×250 mm with 4 mm×50 mm guard column. An isocratic gradient of 19 mM sodium hydroxide with 0.95 mM sodium acetate was used at a flow rate of 1 ml/min with 20 min run. Data was collected using the Dionex ICS-3000 HPLC system with pulsed amperometric detector using standard Quad waveform. ManN was identified and quantified by comparison with monosaccharide standard using Thermo Scientific Chromeleon software. No ManN samples served as negative controls.

β-Glucosidase = assay: β-glucosidase activity assay; type: biochemical, almond; details: up to 2 mM
Protocol: a-mannosidase activity was measured using substrate p-nitrophenyl α-mannopyranoside (1 mM). Enzyme from Jack Bean (M7257) (final concentration of 0.077 U) was incubated at 37° C. in a final volume of 50 μl of 50 mM potassium phosphate buffer, pH 7.5. α-glucosidase was assayed with substrate p-nitrophenyl a-glucoside (7 mM). Enzyme from Saccharomyces cerevisiae-type 1 (Sigma, G5003) (final concentration of 0.1 U) was incubated at 37° C. in a final volume of 50 μl of PBS, pH 7.5. β-Glucosidase was assayed with substrate 4-nitrophenyl β-D-glucopyranoside (Roche). Enzyme from almond (Sigma, G0395) (final concentration of 0.002 U) was incubated at 37° C. in a final volume of 50 μl of PBS, pH 7.5 […]. The incubation was stopped by addition of an equal volume of acid-based stop solution (R&D systems, 895032). Enzymatic activity was measured at 405 nm. α-glucosidase from Saccharomyces cerevisiae type I (G5003) with p-nitrophenyl α-D-glucopyranoside (Sigma, N1377) as the substrate.

human keratinocytes = assay: Human keratinocyte proliferation assay; type: cell-based
Protocol: Proliferation assays with fibroblasts were done in low-glucose DMEM containing 1% FBS, with or without 10 ng/ml bFGF, or 100 ng/ml human EGF and the assay was ended at day 3. ARPE-19 cells were gently lifted with 0.025% trypsin and plated in RtEGM media (Clonetics) containing 2% FBS, L-glutamine, human bFGF and GA-1000. Once cells were attached to plates, serum-free RtEGM media was used to maintain the cultures. For proliferation assays, 1500 human RPE cells were plated into 96-well plates in low-glucose DMEM containing 1% FBS. A673, U87MG, Calu6 and AML12 cells were grown until confluent and were then harvested and re-suspended in appropriate assay media. For proliferation assays, cells were plated at the density of 1000-2000 cells/well in low-glucose DMEM containing 5% FBS or otherwise stated. Bovine pituitary cells (pituitary folliculostellate cells) were isolated as previously described. For proliferation assays with human epidermal keratinocytes, human DMVECs and human dermal fibroblast cells, 1000 cells/well were plated in low-glucose DMEM containing 1% FBS with or without various growth factors. The assay was ended at day 3 for bovine pituitary cells and at day 4 for all the other cell types. […] Four days later, tumor cell growth was measured by the MTS assay (Promega, Madison, WI), a colorimetric assay that measures metabolic activity of viable cells. […]

[2] = tested on: vascular permeability in guinea pig skin; assay: Vascular permeability assay (modified Miles assay); type: in vivo; details: ManN 1 ng-5 μg, VEGF 25 ng, intradermal
Protocol: Vascular permeability was assessed using a modified Miles assay. Hairless male guinea pigs (Crl: HA-Hrhr/IAF, 75 days old, 450-500 g, Charles River Laboratories) were anesthetized by intraperitoneal (i.p.) administration of xylazine (5 mg/kg) and ketamine (75 mg/kg). The animals then received an intravenous injection (penile vein) of 1 ml of 1% Evans blue dye. After 15 mins, intradermal injections (0.05 ml/per site) of different doses of ManN were administrated into the area of trunk posterior to the shoulder. All reagents were diluted in PBS for intradermal administration. 25 ng of VEGF165 per site was used as positive control. 30 mins after the intradermal injections, animals were euthanized by i.p. injection of pentobarbital (200 mg/kg). Skin tissues were dissected from the connective tissues and photographed.

Compound: N[C@H](C=O)[C@@H](O)[C@H](O)[C@H](O)CO [ManN, 2-Amino-2-deoxy-D-mannose]
- plasma ManN after 3 hours relative to peak [1]: about half of that amount
- plasma free ManN peak level [1]: ~100 nmol/ml plasma
- time of plasma peak level [1]: 1 h
- ManN-6p in ischemic leg muscle ([1]; 2 h): 0.91+1−0.24 nmol/mg protein
- free ManN in ischemic leg muscle ([1]; 2 h): 0.17+1−0.18 nmol/mg protein
- effect on β-glucosidase (β-Glucosidase): No effect
- sensitivity of human keratinocytes to ManN toxicity (human keratinocytes; 5 mM level of ManN): least sensitive ones
- proliferation of human keratinocytes (human keratinocytes; alone or in combination with growth factors): no increases in proliferation
- induction of vascular permeability [2]: no permeability-enhancing effects
